In the supplement of paper PMC12076712 one finds pIC50 data, which are given here for six compounds.

Common to all, as to assay: pIC50, kinobeads binding competition
One experiment concerns the target CLK3 (UniProt P49761). Put shortly: (§1)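 Jurkat cells were exposed alive to nine compound concentrations (top 30 μM, 1:4 steps) or vehicle for 60 min at 37 °C and then lysed. In a second format, nine concentrations (top 30 μM, 1:5 steps) were incubated for 60 min at 4 °C with Jurkat lysate or with a 1:1:1:1 lysate mix of HEK293, K-562, HepG2 and placenta. Proteins captured on Kinobeads were digested and quantified by TMT10 LC-MS/MS. pIC50 values were derived from logistic dose-response fits (R drc package) of fold changes relative to vehicle, in biological duplicates.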

The target in a further experiment is FRK (UniProt P42685). Conditions: cell material: Lysate mix. The method in brief: as §1
The next experiment addresses T1, LATS2 (UniProt Q9NRM7).
T1 sequence (whole entry): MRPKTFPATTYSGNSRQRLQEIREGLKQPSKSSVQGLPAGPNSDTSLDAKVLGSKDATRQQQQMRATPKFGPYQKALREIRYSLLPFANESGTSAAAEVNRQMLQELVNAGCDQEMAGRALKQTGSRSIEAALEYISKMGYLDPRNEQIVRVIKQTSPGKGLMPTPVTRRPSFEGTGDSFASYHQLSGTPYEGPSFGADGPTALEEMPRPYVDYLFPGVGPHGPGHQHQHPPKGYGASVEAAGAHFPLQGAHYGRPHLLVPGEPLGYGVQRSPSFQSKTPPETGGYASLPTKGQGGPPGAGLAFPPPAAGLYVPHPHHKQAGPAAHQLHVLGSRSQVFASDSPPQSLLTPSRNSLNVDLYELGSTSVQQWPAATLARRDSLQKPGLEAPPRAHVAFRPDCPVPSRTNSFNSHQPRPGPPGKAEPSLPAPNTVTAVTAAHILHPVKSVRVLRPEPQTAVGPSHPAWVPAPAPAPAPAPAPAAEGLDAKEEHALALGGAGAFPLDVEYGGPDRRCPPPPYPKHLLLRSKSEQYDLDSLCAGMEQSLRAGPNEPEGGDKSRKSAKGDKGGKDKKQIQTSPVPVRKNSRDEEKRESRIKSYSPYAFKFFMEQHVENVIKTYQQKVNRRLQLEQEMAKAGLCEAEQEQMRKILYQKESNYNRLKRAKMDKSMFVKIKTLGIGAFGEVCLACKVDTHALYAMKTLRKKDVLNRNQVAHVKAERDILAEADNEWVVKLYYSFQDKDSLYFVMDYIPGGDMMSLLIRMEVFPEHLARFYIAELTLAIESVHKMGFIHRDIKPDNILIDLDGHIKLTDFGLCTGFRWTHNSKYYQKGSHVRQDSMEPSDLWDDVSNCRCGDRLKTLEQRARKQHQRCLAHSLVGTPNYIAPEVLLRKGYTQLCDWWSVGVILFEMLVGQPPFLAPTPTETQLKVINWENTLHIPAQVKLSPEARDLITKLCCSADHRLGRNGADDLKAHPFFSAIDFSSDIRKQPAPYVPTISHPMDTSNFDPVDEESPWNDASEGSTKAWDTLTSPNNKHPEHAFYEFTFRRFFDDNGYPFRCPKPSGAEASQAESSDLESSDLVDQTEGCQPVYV
Put shortly:
as §1

Another experiment has as its target RPS6KA4 (UniProt O75676). The method in brief:
as §1

Another experiment deals with UniProt P00519. Put shortly:
as §1

A further experiment has as its target UniProt Q15303. Conditions: cell material: Lysate mix. Put shortly: as §1
In another experiment the target is AKT2 (UniProt P31751). Put shortly:
as §1

The next experiment has as its target CLK2 (UniProt P49760). Put shortly:
as §1

A further experiment addresses T2, UniProt Q99683.
T2 sequence (whole entry): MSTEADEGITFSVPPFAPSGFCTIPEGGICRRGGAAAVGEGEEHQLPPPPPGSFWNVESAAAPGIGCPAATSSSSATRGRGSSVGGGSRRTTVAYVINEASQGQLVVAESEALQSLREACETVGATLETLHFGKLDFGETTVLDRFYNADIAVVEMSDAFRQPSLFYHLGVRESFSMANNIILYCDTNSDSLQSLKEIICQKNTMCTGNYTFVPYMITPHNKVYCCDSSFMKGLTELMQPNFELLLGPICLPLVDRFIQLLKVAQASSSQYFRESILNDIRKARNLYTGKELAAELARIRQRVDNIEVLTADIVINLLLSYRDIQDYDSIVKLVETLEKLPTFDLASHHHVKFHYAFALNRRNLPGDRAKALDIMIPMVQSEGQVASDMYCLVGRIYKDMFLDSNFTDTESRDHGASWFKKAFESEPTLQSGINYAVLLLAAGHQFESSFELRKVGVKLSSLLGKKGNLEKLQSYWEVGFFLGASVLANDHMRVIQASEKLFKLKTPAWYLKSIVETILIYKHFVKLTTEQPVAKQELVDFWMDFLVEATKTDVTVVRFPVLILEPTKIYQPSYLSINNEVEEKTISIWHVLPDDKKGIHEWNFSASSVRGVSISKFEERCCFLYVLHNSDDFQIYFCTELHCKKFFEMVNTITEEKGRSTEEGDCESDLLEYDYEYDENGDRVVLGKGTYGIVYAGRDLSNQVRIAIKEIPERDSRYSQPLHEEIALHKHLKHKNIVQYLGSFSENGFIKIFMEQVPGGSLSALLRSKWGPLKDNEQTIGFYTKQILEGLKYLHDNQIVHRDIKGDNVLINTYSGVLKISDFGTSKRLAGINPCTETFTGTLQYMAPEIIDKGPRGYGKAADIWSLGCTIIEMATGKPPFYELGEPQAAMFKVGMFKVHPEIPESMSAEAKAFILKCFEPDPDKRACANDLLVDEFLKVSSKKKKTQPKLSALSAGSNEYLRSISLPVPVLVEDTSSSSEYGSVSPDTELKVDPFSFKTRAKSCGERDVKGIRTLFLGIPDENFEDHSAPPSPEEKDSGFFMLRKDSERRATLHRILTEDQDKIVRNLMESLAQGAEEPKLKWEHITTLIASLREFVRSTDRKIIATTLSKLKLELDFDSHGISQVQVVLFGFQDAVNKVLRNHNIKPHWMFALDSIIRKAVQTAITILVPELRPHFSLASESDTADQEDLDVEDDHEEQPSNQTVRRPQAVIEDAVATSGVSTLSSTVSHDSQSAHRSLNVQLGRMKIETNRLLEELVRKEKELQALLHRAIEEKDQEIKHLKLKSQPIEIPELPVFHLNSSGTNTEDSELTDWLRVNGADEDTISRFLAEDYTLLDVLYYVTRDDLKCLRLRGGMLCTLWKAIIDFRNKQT
The method in brief: as §1

Chain of CLK2 (P49760 whole entry, looked up): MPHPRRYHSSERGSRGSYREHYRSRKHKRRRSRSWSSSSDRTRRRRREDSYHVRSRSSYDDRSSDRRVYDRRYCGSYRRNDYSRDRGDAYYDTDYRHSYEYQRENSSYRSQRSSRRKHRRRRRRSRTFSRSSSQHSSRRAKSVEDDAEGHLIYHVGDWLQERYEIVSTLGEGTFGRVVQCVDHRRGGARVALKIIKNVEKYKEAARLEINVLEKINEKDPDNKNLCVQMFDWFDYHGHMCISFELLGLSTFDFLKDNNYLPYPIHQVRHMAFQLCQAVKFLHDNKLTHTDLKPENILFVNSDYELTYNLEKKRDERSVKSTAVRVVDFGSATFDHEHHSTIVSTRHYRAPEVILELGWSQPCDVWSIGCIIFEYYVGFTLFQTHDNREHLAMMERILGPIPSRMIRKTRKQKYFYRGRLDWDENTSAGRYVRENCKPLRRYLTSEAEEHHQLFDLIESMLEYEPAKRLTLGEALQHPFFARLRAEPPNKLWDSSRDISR
Chain of UniProt P00519 (P00519 whole entry): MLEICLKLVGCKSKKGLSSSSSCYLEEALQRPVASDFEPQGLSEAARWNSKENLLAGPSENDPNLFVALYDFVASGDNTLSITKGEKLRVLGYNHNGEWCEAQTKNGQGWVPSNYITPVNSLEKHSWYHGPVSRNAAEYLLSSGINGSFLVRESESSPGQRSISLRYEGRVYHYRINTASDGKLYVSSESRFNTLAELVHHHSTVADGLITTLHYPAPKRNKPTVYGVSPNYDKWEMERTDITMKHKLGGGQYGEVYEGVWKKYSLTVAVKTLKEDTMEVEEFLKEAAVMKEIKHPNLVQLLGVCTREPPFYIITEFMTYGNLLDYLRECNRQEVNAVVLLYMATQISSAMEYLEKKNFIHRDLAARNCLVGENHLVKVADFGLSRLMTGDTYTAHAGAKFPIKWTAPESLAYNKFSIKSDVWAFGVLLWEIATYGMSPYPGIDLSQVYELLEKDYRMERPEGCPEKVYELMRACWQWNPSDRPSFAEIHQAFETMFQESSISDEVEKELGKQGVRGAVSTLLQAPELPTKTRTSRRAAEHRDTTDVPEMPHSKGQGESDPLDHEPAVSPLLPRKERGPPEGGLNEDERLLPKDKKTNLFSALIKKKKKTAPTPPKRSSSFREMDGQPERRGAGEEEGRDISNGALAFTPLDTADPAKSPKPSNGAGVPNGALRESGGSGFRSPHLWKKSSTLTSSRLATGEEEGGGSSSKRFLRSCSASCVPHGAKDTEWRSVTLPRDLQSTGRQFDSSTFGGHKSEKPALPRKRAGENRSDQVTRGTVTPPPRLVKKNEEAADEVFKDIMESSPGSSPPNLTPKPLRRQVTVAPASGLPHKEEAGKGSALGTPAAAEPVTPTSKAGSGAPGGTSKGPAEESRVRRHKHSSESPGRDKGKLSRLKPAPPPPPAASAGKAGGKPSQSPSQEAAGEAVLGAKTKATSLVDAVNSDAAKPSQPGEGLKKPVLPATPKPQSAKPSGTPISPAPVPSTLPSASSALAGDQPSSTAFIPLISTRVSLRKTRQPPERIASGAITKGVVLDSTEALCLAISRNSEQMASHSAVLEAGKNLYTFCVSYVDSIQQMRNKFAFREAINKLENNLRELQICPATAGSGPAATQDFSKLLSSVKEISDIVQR
Chain of UniProt Q15303 (Q15303 whole entry): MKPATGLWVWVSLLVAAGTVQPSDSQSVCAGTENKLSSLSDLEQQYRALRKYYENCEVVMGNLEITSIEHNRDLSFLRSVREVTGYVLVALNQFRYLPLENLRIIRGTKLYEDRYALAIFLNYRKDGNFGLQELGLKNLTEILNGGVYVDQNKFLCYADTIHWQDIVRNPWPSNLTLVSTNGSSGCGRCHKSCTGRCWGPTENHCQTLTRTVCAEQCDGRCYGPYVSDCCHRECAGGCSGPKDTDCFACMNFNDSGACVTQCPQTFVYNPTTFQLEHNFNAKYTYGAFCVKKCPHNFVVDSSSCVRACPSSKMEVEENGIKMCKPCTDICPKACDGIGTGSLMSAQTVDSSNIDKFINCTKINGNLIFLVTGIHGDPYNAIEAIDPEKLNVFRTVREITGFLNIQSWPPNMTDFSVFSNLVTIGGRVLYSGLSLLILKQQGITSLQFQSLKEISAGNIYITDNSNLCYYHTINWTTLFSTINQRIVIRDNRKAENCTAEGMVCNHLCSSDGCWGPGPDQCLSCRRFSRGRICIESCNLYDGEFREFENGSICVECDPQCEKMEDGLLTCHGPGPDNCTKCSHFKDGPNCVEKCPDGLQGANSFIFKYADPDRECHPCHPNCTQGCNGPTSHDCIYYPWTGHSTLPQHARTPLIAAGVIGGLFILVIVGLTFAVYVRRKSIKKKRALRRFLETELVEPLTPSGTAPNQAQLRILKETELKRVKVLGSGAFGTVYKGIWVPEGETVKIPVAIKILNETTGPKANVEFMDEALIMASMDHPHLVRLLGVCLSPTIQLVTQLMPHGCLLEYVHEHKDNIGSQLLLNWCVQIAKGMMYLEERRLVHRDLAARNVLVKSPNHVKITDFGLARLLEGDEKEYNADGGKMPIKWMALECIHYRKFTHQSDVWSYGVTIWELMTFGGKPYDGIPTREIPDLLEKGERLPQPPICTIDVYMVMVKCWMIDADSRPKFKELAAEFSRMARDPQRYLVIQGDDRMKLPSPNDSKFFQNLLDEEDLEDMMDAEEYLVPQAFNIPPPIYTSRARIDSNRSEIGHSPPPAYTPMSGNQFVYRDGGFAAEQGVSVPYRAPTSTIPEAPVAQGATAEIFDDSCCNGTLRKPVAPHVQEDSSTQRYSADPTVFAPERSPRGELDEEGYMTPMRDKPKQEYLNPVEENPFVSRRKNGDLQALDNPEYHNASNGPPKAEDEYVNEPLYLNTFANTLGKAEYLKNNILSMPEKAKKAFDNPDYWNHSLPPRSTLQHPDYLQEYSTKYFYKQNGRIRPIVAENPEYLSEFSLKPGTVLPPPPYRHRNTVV
Chain of RPS6KA4 (O75676 whole entry, looked up): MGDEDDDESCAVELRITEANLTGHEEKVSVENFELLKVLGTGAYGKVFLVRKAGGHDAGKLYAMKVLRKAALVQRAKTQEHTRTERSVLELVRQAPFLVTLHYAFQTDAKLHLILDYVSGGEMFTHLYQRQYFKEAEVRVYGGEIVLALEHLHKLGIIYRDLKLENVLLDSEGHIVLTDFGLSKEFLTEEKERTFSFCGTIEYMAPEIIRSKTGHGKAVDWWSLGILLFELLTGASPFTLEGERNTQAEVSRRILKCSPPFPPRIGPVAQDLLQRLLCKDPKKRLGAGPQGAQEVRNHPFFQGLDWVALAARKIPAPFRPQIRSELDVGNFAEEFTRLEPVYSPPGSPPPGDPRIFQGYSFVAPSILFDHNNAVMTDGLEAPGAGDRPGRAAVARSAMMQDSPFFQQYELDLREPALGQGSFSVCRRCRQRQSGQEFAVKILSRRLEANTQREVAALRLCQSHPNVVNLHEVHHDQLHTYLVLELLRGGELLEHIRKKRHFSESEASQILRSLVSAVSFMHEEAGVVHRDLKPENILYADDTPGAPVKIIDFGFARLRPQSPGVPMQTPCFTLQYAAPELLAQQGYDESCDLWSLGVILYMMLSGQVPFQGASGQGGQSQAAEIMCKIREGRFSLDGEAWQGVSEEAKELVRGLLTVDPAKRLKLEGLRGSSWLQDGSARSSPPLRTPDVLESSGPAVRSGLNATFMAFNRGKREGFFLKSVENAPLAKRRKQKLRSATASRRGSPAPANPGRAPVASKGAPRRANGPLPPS
Chain of AKT2 (P31751 whole entry): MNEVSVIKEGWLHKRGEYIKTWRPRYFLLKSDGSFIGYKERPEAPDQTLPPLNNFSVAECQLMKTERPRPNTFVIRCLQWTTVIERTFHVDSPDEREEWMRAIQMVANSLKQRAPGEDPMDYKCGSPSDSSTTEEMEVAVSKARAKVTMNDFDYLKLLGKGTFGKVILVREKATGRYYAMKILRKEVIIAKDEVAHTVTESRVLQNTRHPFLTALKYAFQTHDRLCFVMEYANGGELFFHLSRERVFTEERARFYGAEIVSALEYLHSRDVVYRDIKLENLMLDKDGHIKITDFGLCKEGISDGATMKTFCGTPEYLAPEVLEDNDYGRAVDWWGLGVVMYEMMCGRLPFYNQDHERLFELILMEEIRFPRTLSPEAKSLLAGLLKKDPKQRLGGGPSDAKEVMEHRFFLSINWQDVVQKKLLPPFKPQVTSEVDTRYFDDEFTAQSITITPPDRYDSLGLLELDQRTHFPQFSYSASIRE
Chain of CLK3 (P49761 whole entry, looked up): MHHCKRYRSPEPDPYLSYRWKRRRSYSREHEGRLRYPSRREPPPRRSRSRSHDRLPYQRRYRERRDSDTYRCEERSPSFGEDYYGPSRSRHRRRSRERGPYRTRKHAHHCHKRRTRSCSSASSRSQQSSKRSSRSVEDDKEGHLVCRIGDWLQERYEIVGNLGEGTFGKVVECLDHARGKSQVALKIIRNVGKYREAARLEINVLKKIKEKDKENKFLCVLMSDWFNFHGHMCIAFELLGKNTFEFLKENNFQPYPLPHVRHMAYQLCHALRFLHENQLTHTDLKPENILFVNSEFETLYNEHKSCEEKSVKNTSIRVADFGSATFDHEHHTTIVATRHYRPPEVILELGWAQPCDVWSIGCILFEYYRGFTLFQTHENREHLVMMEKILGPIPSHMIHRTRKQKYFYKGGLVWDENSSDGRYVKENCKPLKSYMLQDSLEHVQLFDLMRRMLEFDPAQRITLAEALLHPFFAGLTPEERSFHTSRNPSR

`C#CCNC(=O)c1cc(Nc2cc(C)[nH]n2)nc(N2CCN(Cc3ccc(S(=O)(=O)F)cc3)CC2)n1`: the negative-log IC50 (pIC50) (as a rule, the IC50 on a negative log10 scale, so that one unit is a factor of ten) on CLK3 (cell material: Lysate mix) is less than 4.52; on FRK it was 5.78; at LATS2 (cell material: Lysate mix), 4.77; on RPS6KA4 (cell material: Lysate mix), 4.84; at UniProt P00519 (cell material: Lysate mix) it was less than 4.52; on UniProt Q15303 it was 4.99.
For `O=C(NCCNC(=O)c1cc(Nc2cc(C3CC3)[nH]n2)nc(N2CCN(Cc3ccc(S(=O)(=O)F)cc3)CC2)n1)OC1CC/C=C/CCC1` (stereo unspecified), the pIC50 is less than 4.52 at AKT2 (cell material: Jurkat cells); 5.92 on CLK2 (cell material: Jurkat cells); less than 4.52 at CLK2 (cell material: Jurkat lysate); less than 4.52 at CLK2 (cell material: Lysate mix); less than 4.52 on CLK3 (cell material: Jurkat lysate); less than 4.52 at CLK3 (cell material: Lysate mix). For the same compound, the negative logarithm of the IC50 (pIC50) was 5.54 at LATS2 (cell material: Jurkat cells); less than 4.52 at LATS2 (cell material: Jurkat lysate); less than 4.52 at LATS2 (cell material: Lysate mix); 5.8 at RPS6KA4 (cell material: Jurkat cells); less than 4.52 on RPS6KA4 (cell material: Jurkat lysate); less than 4.52 on RPS6KA4 (cell material: Lysate mix). The pIC50 was 4.86 on UniProt P00519 (cell material: Jurkat cells); less than 4.52 on UniProt P00519 (cell material: Jurkat lysate); less than 4.52 on UniProt P00519 (cell material: Lysate mix); less than 4.52 on UniProt Q15303; 4.75 at UniProt Q99683 (cell material: Jurkat cells); less than 4.52 on UniProt Q99683 (cell material: Jurkat lysate). The negative-log IC50 (pIC50) at UniProt Q99683 (cell material: Lysate mix) is less than 4.52.
Take `CCNC(=O)c1cc(Nc2cc(C3CC3)[nH]n2)nc(N2CCN(Cc3ccc(S(=O)(=O)F)cc3)CC2)n1`: the negative-log IC50 (pIC50) on AKT2 (cell material: Lysate mix) is less than 4.52; on CLK2 (cell material: Lysate mix), 5.55; on CLK3 (cell material: Lysate mix), 4.85; on FRK, 5.98; on LATS2 (cell material: Lysate mix), 5.31; on RPS6KA4 (cell material: Lysate mix) it was 5.34. The values for the pIC50 on UniProt Q15303 and at UniProt Q99683 (cell material: Lysate mix) were 4.96 and less than 4.52, respectively.
In the case of `Cc1cc(Nc2cc(C(=O)NCCNC(=O)OC3CC/C=C/CCC3)nc(N3CCN(Cc4ccc(S(=O)(=O)F)cc4)CC3)n2)n[nH]1` (stereo unspecified), the negative logarithm of the IC50 (pIC50) at FRK, on LATS2 (cell material: Lysate mix), on RPS6KA4 (cell material: Lysate mix), at UniProt P00519 (cell material: Lysate mix), on UniProt Q15303 and at UniProt Q99683 (cell material: Lysate mix) was less than 4.52 in each case.
As for `CCNC(=O)c1cc(Nc2cc(C)[nH]n2)nc(N2CCN(Cc3ccc(S(=O)(=O)F)cc3)CC2)n1`, the pIC50 at CLK3 (cell material: Lysate mix) is less than 4.52; on FRK, 6.23; at UniProt P00519 (cell material: Lysate mix) it was less than 4.52; at UniProt Q15303, 5.04; at UniProt Q99683 (cell material: Lysate mix), 4.69.
Turning to `C#CCNC(=O)c1cc(Nc2cc(C3CC3)[nH]n2)nc(N2CCN(Cc3ccc(S(=O)(=O)F)cc3)CC2)n1`, the pIC50 on AKT2 (cell material: Jurkat cells) is 5.74; on CLK2 (cell material: Jurkat cells) it was 6.11; on CLK2 (cell material: Jurkat lysate), 5.57; on CLK3 (cell material: Jurkat lysate), less than 4.52; at CLK3 (cell material: Lysate mix), 5.15; on FRK, 6.27. Moreover, the pIC50 was 5.82 on LATS2 (cell material: Jurkat cells); 5.84 on LATS2 (cell material: Lysate mix); 5.84 at RPS6KA4 (cell material: Jurkat cells); 4.83 at RPS6KA4 (cell material: Jurkat lysate); 5.56 at RPS6KA4 (cell material: Lysate mix); 5.64 at UniProt P00519 (cell material: Jurkat cells). For the same compound, the pIC50 was 4.67 at UniProt P00519 (cell material: Jurkat lysate); 4.67 on UniProt P00519 (cell material: Lysate mix); 5.39 on UniProt Q99683 (cell material: Jurkat cells); less than 4.52 on UniProt Q99683 (cell material: Jurkat lysate); less than 4.52 at UniProt Q99683 (cell material: Lysate mix).
